Results from ChEMBL document CHEMBL1134943, “Synthesis and biological activity of retinoic acid receptor-alpha specific amides” (Bioorg Med Chem Lett, 2002).
Substitutions are numbered along the chain they refer to. Calls of active or inactive are those of the source. The calls are words filed in the database; no cut-off is given here.

Tests used:
SK-BR-3 [1] = assay: Inhibition of ER-negative human breast cancer cell SK-BR-3 proliferation; format: functional, cell-based
SK-BR-3 [2] = assay: Percent inhibition of BrdU incorporation into SK-BR-3 cells; format: functional, Homo sapiens
T47D [3] = assay: Percent inhibition of BrdU incorporation into T-47D cells; format: functional, Homo sapiens
T47D [4] = assay: Inhibition of ER positive human breast cancer cell T-47D proliferation; format: functional, cell-based
[5] = molecular target: T1, Retinoic acid receptor alpha (Homo sapiens, UniProt P10276); assay: Binding affinity fo retinoic acid receptor RAR alpha
T1 sequence (P10276 whole entry): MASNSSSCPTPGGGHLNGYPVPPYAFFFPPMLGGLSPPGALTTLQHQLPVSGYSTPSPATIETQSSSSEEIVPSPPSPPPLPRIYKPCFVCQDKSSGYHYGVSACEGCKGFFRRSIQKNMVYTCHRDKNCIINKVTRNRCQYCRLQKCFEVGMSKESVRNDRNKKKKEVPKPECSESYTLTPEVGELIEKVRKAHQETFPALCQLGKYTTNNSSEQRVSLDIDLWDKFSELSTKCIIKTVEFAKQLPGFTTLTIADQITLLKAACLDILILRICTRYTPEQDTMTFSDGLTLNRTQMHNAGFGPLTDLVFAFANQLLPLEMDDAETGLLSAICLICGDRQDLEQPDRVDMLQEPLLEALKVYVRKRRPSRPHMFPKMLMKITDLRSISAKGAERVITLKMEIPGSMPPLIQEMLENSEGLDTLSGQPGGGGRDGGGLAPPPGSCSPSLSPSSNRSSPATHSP

[6] = molecular target: T1, Retinoic acid receptor alpha; assay: Effective concentration for retinoic acid receptor RAR alpha transcriptional activation; format: functional
[7] = molecular target: T2, Retinoic acid receptor beta (Homo sapiens) (UniProt P10826); assay: Percent transcriptional activation of RAR beta compared to […]; format: functional
T2 sequence (whole entry): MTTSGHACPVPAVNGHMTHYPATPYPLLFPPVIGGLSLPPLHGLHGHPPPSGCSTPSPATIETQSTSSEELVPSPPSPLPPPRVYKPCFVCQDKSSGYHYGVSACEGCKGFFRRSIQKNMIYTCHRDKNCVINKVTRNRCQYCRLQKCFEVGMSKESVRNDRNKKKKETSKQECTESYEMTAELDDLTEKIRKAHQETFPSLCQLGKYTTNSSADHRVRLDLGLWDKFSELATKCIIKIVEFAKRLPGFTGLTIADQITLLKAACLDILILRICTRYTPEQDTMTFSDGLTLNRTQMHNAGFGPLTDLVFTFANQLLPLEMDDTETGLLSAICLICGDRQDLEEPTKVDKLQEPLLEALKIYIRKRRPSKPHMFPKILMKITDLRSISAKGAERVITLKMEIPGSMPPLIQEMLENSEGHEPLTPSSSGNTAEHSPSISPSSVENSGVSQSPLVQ

[8] = molecular target: T3, Retinoic acid receptor beta (Homo sapiens, UniProt P10826); assay: Binding affinity for retinoic acid receptor RAR beta
T3 sequence (P10826 whole entry): T2 sequence (whole entry)

[9] = molecular target: T3, Retinoic acid receptor beta; assay: Effective concentration for retinoic acid receptor RAR beta transcriptional activation; format: functional
[10] = molecular target: T4, Retinoic acid receptor gamma (Homo sapiens, UniProt P13631); assay: Binding affinity for retinoic acid receptor RAR gamma
T4 sequence (P13631 whole entry): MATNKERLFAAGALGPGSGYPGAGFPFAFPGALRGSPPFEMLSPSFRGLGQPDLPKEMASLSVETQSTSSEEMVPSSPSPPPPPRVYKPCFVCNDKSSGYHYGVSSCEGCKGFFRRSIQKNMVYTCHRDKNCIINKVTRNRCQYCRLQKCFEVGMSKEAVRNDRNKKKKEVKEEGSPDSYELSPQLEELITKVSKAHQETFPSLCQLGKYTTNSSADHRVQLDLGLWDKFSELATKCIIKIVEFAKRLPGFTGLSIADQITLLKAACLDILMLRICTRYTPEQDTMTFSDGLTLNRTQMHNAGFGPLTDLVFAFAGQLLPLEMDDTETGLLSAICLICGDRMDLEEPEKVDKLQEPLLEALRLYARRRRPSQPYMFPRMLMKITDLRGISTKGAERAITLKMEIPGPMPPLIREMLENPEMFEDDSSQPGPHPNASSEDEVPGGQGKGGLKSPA

[11] = molecular target: T5, Retinoic acid receptor gamma (Homo sapiens) (UniProt P13631); conditions: 1 mM
T5 sequence (whole entry): T4 sequence (P13631 whole entry)

[12] = molecular target: T4, Retinoic acid receptor gamma; assay: Effective concentration for retinoic acid receptor RAR gamma transcriptional activation; format: functional
[13] = molecular target: T5, Retinoic acid receptor gamma (Homo sapiens); assay: Percent transcriptional activation of RAR gamma compared to 1 µM ATRA
[14] = molecular target: T6, Retinoic acid receptor alpha (Mus musculus) (UniProt P11416); assay: Topical irritation induced by RAR alpha-selective retinoid Am-580 in mice; format: functional
T6 sequence (whole entry): T1 sequence (P10276 whole entry) with T43S, E150D, V169A, R347K, P427S, G431T, N453H, H460Q

[15] = molecular target: T7, Retinoic acid receptor alpha (Homo sapiens) (UniProt P10276); assay: Percent transcriptional activation of RAR alpha compared to […]; format: functional
T7 sequence (whole entry): T1 sequence (P10276 whole entry)

[16] = molecular target: T2, Retinoic acid receptor beta (Homo sapiens); assay: Percent transcriptional activation of RAR beta compared to […]; NA indicates […]; format: functional

CC1=C(/C=C/C(C)=C/C=C/C(C)=C/C(=O)O)C(C)(C)CCC1 [TRETINOIN]
IC50 (SK-BR-3 [1]): 1.7 nM | Efficacy (SK-BR-3 [2]): 99% | Efficacy (T47D [3]): 74% | IC50 (T47D [4]): 200 nM

CC1(C)CCC(C)(C)c2cc(C(=O)Nc3cc(F)c(C(=O)O)c(F)c3)ccc21
Kd [5]: 7 nM | EC50 [6]: 94 nM | Efficacy [7]: 25% | Kd [8]: 1470 nM | EC50 [9]: > 1000 nM | Kd [10]: 5600 nM | Efficacy [11]: inactive

CC1(C)CCC(C)(C)c2cc(C(=O)Nc3ccc(C(=O)O)c(F)c3)ccc21
Kd [5]: 2 nM | EC50 [6]: 8 nM | Efficacy [7]: 78% | Kd [8]: 380 nM | EC50 [9]: 45 nM | Kd [10]: 990 nM | EC50 [12]: 350 nM | Efficacy [13]: 85%

CC1(C)CCC(C)(C)c2cc(C(=O)Nc3cc(F)c(C(=O)O)c(F)c3)c(O)cc21
Kd [5]: 3 nM | EC50 [6]: 112 nM | Efficacy [7]: 10% | Kd [8]: > 100000 nM | EC50 [9]: > 1000 nM | Kd [10]: 5600 nM | EC50 [12]: > 1000 nM | Efficacy [13]: 10%

CC1(C)CCC(C)(C)c2cc(C(=O)Nc3ccc(C(=O)O)cc3)ccc21
Efficacy [7]: 105% | Topical irritation score(0-21) [14]: 16 | Efficacy [13]: 80%

CC1(C)CCC(C)(C)c2c1cc(C(=O)Nc1cc(F)c(C(=O)O)c(F)c1)c(O)c2Cl [NRX195183]
Kd [5]: 3 nM | EC50 [6]: 200 nM | Efficacy [15]: 80% | Efficacy [16]: inactive | Kd [8]: > 100000 nM | Kd [10]: > 100000 nM | Topical irritation score(0-21) [14]: 0 | IC50 (SK-BR-3 [1]): 11 nM | Efficacy (SK-BR-3 [2]): 93% | Efficacy (T47D [3]): 57% | IC50 (T47D [4]): 1.4 nM | Efficacy [11]: inactive

CC1(C)CCC(C)(C)c2c1cc(C(=O)Nc1cc(F)c(C(=O)O)c(F)c1)c(O)c2Br
Kd [5]: 4 nM | EC50 [6]: 290 nM | Efficacy [16]: inactive | Kd [8]: 6400 nM | Kd [10]: > 100000 nM | Efficacy [11]: inactive
